For one experiment, the system named is SMN2 mRNA. As to the kind of experiment: Splicing RT-qPCR panel, SMN2 canonical junction (CJ) mRNA. The settings on record: read-out: SMN2 CJ (decrease in CJ mRNA levels, IC50). The format is cell-based, human. The method in brief:
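A673 cells (DMEM, 10% FBS) or K562 cells (IMDM, 10% FBS) treated 24 h at 37 °C with an 11-point 3-fold dilution, top 10 uM, DMSO ≤0.25%. Canonical-junction mRNA quantified in lysates by RT-qPCR, normalised to GAPDH, GUSB or PPIA and to DMSO (2^−ΔΔCt), then converted to % response.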

The next experiment has as its system HiBiT-tagged HTT protein. As to the kind of experiment: HiBiT protein abundance assay, HTT (K562 HiBiT knock-in). It counts as cell-based, human. Particulars: HiBiT knock-in cells, 24 hours. The method in brief:
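Endogenously HiBiT-tagged K562 knock-in lines treated 24 h at 37 °C with 10-point 3-fold dilutions (top 10 μM final, DMSO ≤0.25%) in IMDM+1% FBS. Lytic Nano-Glo luminescence normalized to DMSO and unmodified K562 controls; four-parameter fit gives 50%-abundance concentration (IC50).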
For orientation: HiBiT is a short tag that completes a luciferase, so light tracks the accessible tagged protein.

This note sets out measurements from patent US20250326748A1, “COMPOUNDS AND METHODS FOR MODULATING SPLICING” (REMIX THERAPEUTICS INC., priority 2022, published 2025).

As usually defined, the IC50 is the midpoint of a concentration-inhibition curve.

Structures can show the parent of a compound that is named as a salt. Where two headings read alike, the source gives them in different places.

Regarding `CN[C@@H]1CCN(c2cnc3nc(-c4cc(F)c5nc(C)cn5c4)ncc3c2)C1` [Compound 202, (3R)-1-(2-{8-fluoro-2-methylimidazo[1,2-a]pyridin-6-yl}pyrido[2,3-d]pyrimidin-6-yl)-N-methylpyrrolidin-3-amine], the IC50 is < 100 nM in the experiment on SMN2 mRNA (Homo sapiens) and 100 to 1000 nM with HiBiT-tagged HTT protein.

For `CC1CN(c2cnc3nc(-c4cc(F)c5nn(C)cc5c4)cc(Cl)c3c2)CCN1` (stereo not drawn) [Compound 203, 4-chloro-2-(7-fluoro-2-methyl-2H-indazol-5-yl)-6-(3-methylpiperazin-1-yl)-1,8-naphthyridine 2,2,2-trifluoroacetate], the figures for the IC50 in the experiment on SMN2 mRNA (Homo sapiens) and with HiBiT-tagged HTT protein were < 100 nM and 100 to 1000 nM, respectively.

Consider `Cc1c(O)c(-c2cc(Cl)c3cc(N(C)C4CCNC4)cnc3n2)cc2cn(C)nc12` (stereo not drawn) [Compound 204, 5-[4-chloro-6-(367pyrrolidine-3-ylamino)-1,8-naphthyridin-2-yl]-2,7-dimethylindazol-6-ol], for which the IC50 in the experiment on SMN2 mRNA (Homo sapiens) was < 100 nM; in the experiment with HiBiT-tagged HTT protein it was 100 to 1000 nM.

`Cc1cn2nc(-c3ccc4cc(N(C)C5CCNCC5)cnc4n3)cc(C)c2n1` [Compound 205, 7-{2,8-dimethylimidazo[1,2-b]pyridazin-6-yl}-N-methyl-N-(piperidin-4-yl)-1,8-naphthyridin-3-amine]: the figures for the IC50 with SMN2 mRNA (Homo sapiens) and in the experiment with HiBiT-tagged HTT protein were 100 to 1000 nM and > 10000 nM, respectively.

Regarding `C[C@@H]1CN(c2cnc3nc(-c4cc5cn(C)nc5c(F)c4O)ccc3c2)C[C@H](C)N1` [Compound 206], the IC50 with SMN2 mRNA (Homo sapiens) and in the experiment with HiBiT-tagged HTT protein was < 100 nM throughout.

With `Cc1c(O)c(-c2cc(Cl)c3cc(N4C[C@@H](C)N[C@@H](C)C4)cnc3n2)cc2cn(C)nc12` [Compound 207, 5-{4-chloro-6-[(3R,5S)-3,5-dimethylpiperazin-1-yl]-1,8-naphthyridin-2-yl}-2,7-dimethylindazol-6-ol], the IC50 with SMN2 mRNA and in the experiment on HiBiT-tagged HTT protein was < 100 nM each time.

With `C[C@@H]1CN(c2cnc3nc(-c4cc5cn(C)nc5cc4O)cc(Cl)c3c2)C[C@H](C)N1` [Compound 208], the IC50 is < 100 nM in the experiment with SMN2 mRNA (Homo sapiens) and 100 to 1000 nM with HiBiT-tagged HTT protein.

Take `Cn1cc2cc(-c3cc(Cl)c4cc(N5CCNC(C6CC6)C5)cnc4n3)cc(F)c2n1` (stereo not drawn) [Compound 209, 4-chloro-6-(3-cyclopropylpiperazin-1-yl)-2-(7-fluoro-2-methylindazol-5-yl)-1,8-naphthyridine]: the values for the concentration for half-maximal inhibition (IC50) in the experiment with SMN2 mRNA (Homo sapiens) and in the experiment on HiBiT-tagged HTT protein were < 100 nM and 100 to 1000 nM, respectively.

For `Cc1cn2nc(-c3ccc4cc(NC5CCNCC5)cnc4n3)cc(C)c2n1` [Compound 210, 7-{2,8-dimethylimidazo[1,2-b]pyridazin-6-yl}-N-(piperidin-4-yl)-1,8-naphthyridin-3-amine; trifluoroacetic acid], the IC50 lay in the range of 100 to 1000 nM in the experiment on SMN2 mRNA (Homo sapiens) and 1000 to 10000 nM with HiBiT-tagged HTT protein.

Consider `CN[C@@H]1CCN(c2cnc3nc(-c4cc5cn(C)nc5c(C)c4O)nc(OC)c3c2)C1` [Compound 211, 5-{4-methoxy-6-[(3R)-3-(methylamino)pyrrolidin-1-yl]pyrido[2,3-d]pyrimidin-2-yl}-2,7-dimethylindazol-6-ol], for which the IC50 in the experiment with SMN2 mRNA (Homo sapiens) and in the experiment with HiBiT-tagged HTT protein was < 100 nM in each case.

For the molecule `CN[C@H]1CCN(c2cnc3nc(-c4cc5cn(C)nc5c(C)c4O)nc(OC)c3c2)C1` [Compound 212, 5-{4-methoxy-6-[(3S)-3-(methylamino)pyrrolidin-1-yl]pyrido[2,3-d]pyrimidin-2-yl}-2,7-dimethylindazol-6-ol], the half-inhibitory concentration (IC50) in the experiment on SMN2 mRNA (Homo sapiens) and in the experiment with HiBiT-tagged HTT protein was < 100 nM each time.

For `CNC1CCN(c2cnc3nc(-c4cc5cn(C)nc5cc4O)cc(Cl)c3c2)C1` (stereo not drawn) [Compound 213, 5-{4-chloro-6-[3-(methylamino)370pyrrolidine-1-yl]-1,8-naphthyridin-2-yl}-2-methylindazol-6-ol], the 50% inhibitory concentration (IC50) in the experiment with SMN2 mRNA (Homo sapiens) is < 100 nM; in the experiment on HiBiT-tagged HTT protein, 100 to 1000 nM.

`Cc1c(O)c(-c2ncc3cc(N4C[C@@H](C)N[C@@H](C)C4)cnc3n2)cc2cn(C)nc12` [Compound 214]: the IC50 with SMN2 mRNA (Homo sapiens) is < 100 nM; in the experiment with HiBiT-tagged HTT protein, 100 to 1000 nM.

On to `C[C@@H]1CN(c2cnc3nc(-c4cc(F)c5nn(C)cc5c4)cc(Cl)c3c2)C[C@H](C)N1` [Compound 215], for which the 50% inhibitory concentration (IC50) in the experiment on SMN2 mRNA (Homo sapiens) is < 100 nM; in the experiment on HiBiT-tagged HTT protein it was 1000 to 10000 nM.

For `Cn1cc2cc(-c3cc(Cl)c4cc(N5CCN6CCCC6C5)cnc4n3)cc(F)c2n1` (stereo not drawn) [Compound 216, 4-chloro-2-(7-fluoro-2-methylindazol-5-yl)-6-{hexahydro-1H-pyrrolo[1,2-a]pyrazin-2-yl}-1,8-naphthyridine trifluoroacetic acid], the IC50 in the experiment on SMN2 mRNA (Homo sapiens) is < 100 nM; with HiBiT-tagged HTT protein, 1000 to 10000 nM.

`Cc1c(O)c(-c2cc(-c3ccccn3)c3cc(N4C[C@@H](C)N[C@@H](C)C4)cnc3n2)cc2cn(C)nc12` [Compound 217, 5-{6-[(3R,5S)-3,5-dimethylpiperazin-1-yl]-4-(pyridin-2-yl)-1,8-naphthyridin-2-yl}-2,7-dimethylindazol-6-ol]: the IC50 was > 10000 nM in the experiment on SMN2 mRNA (Homo sapiens) and 1000 to 10000 nM with HiBiT-tagged HTT protein.

With `COc1nc(-c2cc3cn(C)nc3c(F)c2O)nc2ncc(N3C[C@@H](C)N[C@@H](C)C3)cc12` [Compound 218], the IC50 in the experiment with SMN2 mRNA (Homo sapiens) and in the experiment with HiBiT-tagged HTT protein was < 100 nM in each case.

Consider `COc1nc(-c2cc3cn(C)nc3c(F)c2O)nc2ncc(N3CCC(N(C)C)CC3)cc12` [Compound 219, 5-{6-[4-(dimethylamino)piperidin-1-yl]-4-methoxypyrido[2,3-d]pyrimidin-2-yl}-7-fluoro-2-methylindazol-6-ol], for which the IC50 in the experiment on SMN2 mRNA (Homo sapiens) and in the experiment with HiBiT-tagged HTT protein was < 100 nM throughout.

For the molecule `CN(C)[C@@H]1CCN(c2cnc3nc(-c4cc5cn(C)nc5c(F)c4O)cc(Cl)c3c2)C1` [Compound 220], the IC50 in the experiment with SMN2 mRNA (Homo sapiens) and in the experiment with HiBiT-tagged HTT protein was < 100 nM throughout.

Regarding `CN(C)[C@H]1CCN(c2cnc3nc(-c4cc5cn(C)nc5c(F)c4O)cc(Cl)c3c2)C1` [Compound 221], the half-maximal inhibitory concentration (IC50) with SMN2 mRNA (Homo sapiens) and with HiBiT-tagged HTT protein was < 100 nM throughout.

In the case of `C[C@H]1CN(c2cnc3nc(-c4cc5cn(C)nc5cc4O)cc(Cl)c3c2)C[C@H](C)N1` [Compound 242], the 50% inhibitory concentration (IC50) is < 100 nM in the experiment on SMN2 mRNA (Homo sapiens) and 100 to 1000 nM in the experiment on HiBiT-tagged HTT protein.

Consider `C[C@@H]1CN(c2cnc3nc(-c4cc5cn(C)nc5cc4O)cc(Cl)c3c2)C[C@@H](C)N1` [Compound 243, 5-{4-chloro-6-[(3R,5R)-3,5-dimethylpiperazin-1-yl]-1,8-naphthyridin-2-yl}-2-methylindazol-6-ol hydrochloride], for which the IC50 with SMN2 mRNA (Homo sapiens) is < 100 nM; in the experiment with HiBiT-tagged HTT protein, 100 to 1000 nM.

In the case of `C[C@H]1CN(c2cnc3nc(-c4cc(F)c5nn(C)cc5c4)cc(Cl)c3c2)C[C@H](C)N1` [Compound 250], the half-inhibitory concentration (IC50) with SMN2 mRNA (Homo sapiens) was < 100 nM; in the experiment on HiBiT-tagged HTT protein, 100 to 1000 nM.

Consider `C[C@@H]1CN(c2cnc3nc(-c4cc(F)c5nn(C)cc5c4)cc(Cl)c3c2)C[C@@H](C)N1` [Compound 251], for which the results for the 50% inhibitory concentration (IC50) in the experiment with SMN2 mRNA (Homo sapiens) and with HiBiT-tagged HTT protein were < 100 nM and 1000 to 10000 nM, respectively.

Take `Cc1c(O)c(-c2cc(-c3nnc[nH]3)c3cc(N4C[C@@H](C)N[C@@H](C)C4)cnc3n2)cc2cn(C)nc12` [Compound 261, 5-{6-[(3R,5S)-3,5-dimethylpiperazin-1-yl]-4-(4H-1,2,4-triazol-3-yl)-1,8-naphthyridin-2-yl}-2,7-dimethylindazol-6-ol]: the IC50 in the experiment on SMN2 mRNA (Homo sapiens) was < 100 nM; with HiBiT-tagged HTT protein it was > 10000 nM.

For `C[C@@H]1CN(c2cnc3nc(-c4cc5cn(C)nc5c(F)c4O)cc(C#N)c3c2)C[C@H](C)N1` [Compound 266, 6-[(3R,5S)-3,5-dimethylpiperazin-1-yl]-2-(7-fluoro-6-hydroxy-2-methylindazol-5-yl)-1,8-naphthyridine-4-carbonitrile hydrochloride], the concentration for half-maximal inhibition (IC50) in the experiment with SMN2 mRNA (Homo sapiens) was < 100 nM; in the experiment on HiBiT-tagged HTT protein, 100 to 1000 nM.

Take `CN[C@@H]1CCN(c2cnc3nc(-c4cc5cn(C)nc5c(F)c4O)cc(Cl)c3c2)C1` [Compound 271]: the IC50 in the experiment with SMN2 mRNA (Homo sapiens) and in the experiment with HiBiT-tagged HTT protein was < 100 nM throughout.
